For data set [1], the system named is HIV-1Ada-M. Nature of the data set: Antiviral efficacy in primary monocyte-derived macrophages infected with HIV-1Ada-M (p24). The data set is classed as cell-based. How it is done:
Briefly, cells were infected with different strains of HIV with a multiplicity of infection of 1 (virus/target cell) and were treated with different concentrations of free and liposome-encapsulated drugs. Virus replication were monitored at different time intervals by measuring either the reverse transcriptase activity in cell-free supernatants or the viral p24 protein using an enzymatic test. Virus transcription was also monitored by polymerase chain reaction (PCR) analysis 24 hours after treatment using an HIV primer pair (M661/M667). The PCR evaluation was normalized with respect to the amount of human β-globin gene in cells. Cell viability was assessed using a tetrazolium-based colorimetric (MTT) assay.
Peripheral blood mononuclear cells were suspended in seeding medium in a
48 wellplate at a density of 3 × 10^6 cells/ml. Five days after
initiation of the cultures, nonadherent cells were removed by rinsing the
cultures four times with PBS. Adherent cells were first preincubated in
the presence or absence of drugcontaining medium for 2 hours prior to
inoculation with 10,000 cpm/well of the AdaM monocytotropic strain of
HIV1. Thereafter, medium was changed once every 4 to 5 days and was
replaced with medium supplemented or not with ddI. Virus replication was
monitored by measuring p24 levels using an enzymatic assay.

Data set [2] is described as follows: Pharmacokinetics in rats (plasma). Format: in vivo, rat (female Sprague-Dawley). On the procedure: (§1) In brief, free and liposome-encapsulated drugs were injected to female Sprague-Dawley rats as a single intravenous bolus dose via a catheter inserted through the jugular vein of animals. At specific time points, animals were sacrificed and blood was collected in heparinized tubes and separated by centrifugation. At the same time, selected tissues were removed, washed, weighed and homogenized. Tissues and plasma were then treated according to a commercial tissue solubilizer procedure. The determination of drug and lipid levels in all samples were monitored with radioactive tracers.
Parameters were calculated from the plasma concentrationtime curves using
a noncompartmental model.
Values are expressed as means ± SD obtained from 6 animals per group

Data set [3] concerns murine monocyte-macrophage RAW 264.7 cells. Nature of the data set: Cellular uptake in RAW 264.7 cells. To be noted: in words, FIGS. 1a-1d.
Method: (§2) We have performed in vitro experiments to evaluate the accumulation of free and liposome-encapsulated anti-HIV agents in murine monocyte-macrophage RAW 264.7 cells and in human premonocytoid U937 cells. In brief, experiments were performed by incubating confluent cells in culture medium in presence of different concentrations of free and liposome-encapsulated anti-HIV agents in which a small proportion of radiolabeled drugs and lipids were added. At different incubation times, the medium was removed and cells were washed and treated with a Triton X-100 solution. Drug and lipid uptake were determined by measuring the radioactivity level with a liquid scintillation counter. The protein concentration for each sample was determined with a Pierce bicinchoninic acid protein assay (Rockford, Ill.) in microtiter plates.
In data set [4] the test system is human premonocytoid U937 cells. Briefly: Cellular uptake in U937 cells. To be noted: in words, FIGS. 1a, 1b.
Method: as §2
Data set [5] is described as follows: Tissue distribution in rats. Format: in vivo, rat (female Sprague-Dawley). To be noted: single i.v. dose 10 mg foscarnet/kg. How it is done: as §1
Data set [6] relates to human CMV (AD169 strain). Nature of the data set: Anti-CMV activity: CMV p72 protein expression in MRC-5 cells. The data set is classed as cell-based. The conditions noted are these: MRC-5 cell line, 96 hours, in words; FIG. 2g. How it is done:
The anti-CMV activity of free and liposome-encapsulated foscarnet has been also evaluated in embryonic lung fibroblast cells (MRC-5 cell line). […] After a 96 hours incubation, cells were fixed and immunoperoxydase staining was performed using a monoclonal antibody directed against a 72-kDa immediate early CMV protein Labeled plaques were counted and results were expressed as percent of untreated infected control cells versus concentration of foscarnet.

The mark [7] stands for this setting: [^3 H]ddI, single i.v. dose 3 mg ddI/kg, rats.
The mark [8] stands for this setting: [^14 C]-PFA, single i.v. dose 10 mg/kg, rats, mean ± SD.

The values below come from patent US5773027A, “Liposomes encapsulating antiviral drugs” (priority 1995, dated 1998).

SMILES strings stand for the structures.

For `O=c1[nH]cnc2c1ncn2[C@H]1CC[C@@H](CO)O1` [Free ddI, 2'-3'-dideoxyinosine], the “p24 (Days post-infection)” value in data set [1] (0.1 μM, day 7) is 0 ng/mL; in data set [1] (0.1 μM, day 13), 20 ng/mL; in data set [1] (0.1 μM, day 17), 280 ng/mL; in data set [1] (1 μM, day 7), 0 ng/mL; in data set [1] (1 μM, day 13), 0 ng/mL; in data set [1] (1 μM, day 17), 0 ng/mL. Moreover, the “p24 (Days post-infection)” value in data set [1] (10 μM, day 7) amounted to 0 ng/mL; in data set [1] (10 μM, day 13) it was 0 ng/mL; in data set [1] (10 μM, day 17) it was 0 ng/mL. Also, in data set [2] (setting [7]), the “AUC0-∞, area under the plasma concentration-time curve” value was determined as 5.31 nmol/mL/h. Moreover, the “Cl, systemic clearance” value in data set [2] (setting [7]) came out at 2.39 L/h/kg. The “Kel, elimination rate constant” value in data set [2] (setting [7]) turned out to be 4.97 h⁻¹. The “MRT, mean residence time” value in data set [2] (setting [7]) was 12 min. Moreover, the “Vdss, steady state volume of distribution” value in data set [2] (setting [7]) came to 0.48 L/kg. Further, the “t1/2, elimination half-life” value in data set [2] (setting [7]) was determined as 8.4 min. Also, the “drug uptake / accumulation in cells” value in data set [3] and in data set [4] was “a higher accumulation” in each case.

Consider `O=C(O)P(=O)(O)O` [Free foscarnet, foscarnet], for which, in data set [2] (setting [8]), the “AUC0→∞, area under the plasma concentration-time curve” value was determined as 48.0 ± 9.6 nmol/mL/h; the “Cl, systemic clearance” value stood at 0.77 ± 0.15 L/h/kg; the “Kel, elimination rate constant” value stood at 0.96 ± 0.06 h⁻¹; the “MRT, mean residence time” value amounted to 62.4 ± 4.2 min. In addition, the “t1/2, elimination half-life” value in data set [2] (setting [8]) was 42.6 ± 2.4 min. Also, the “Vdss, steady state volume of distribution” value in data set [2] (rat, in vivo, iv, 10 mg/kg) is 0.80 ± 0.14 L/kg. Besides, the “Area under the curve, Brain” value in data set [5] (brain) is 3.1 nmol foscarnet/g tissue/h. In addition, the “Area under the curve, Eyes” value in data set [5] (eyes) amounted to 22.9 nmol foscarnet/g tissue/h. Besides, the “Area under the curve, Liver” value in data set [5] (liver) is listed as 1.2 nmol foscarnet/g tissue/h. Moreover, in data set [5] (lungs), the “Area under the curve, Lungs” value was 1.5 nmol foscarnet/g tissue/h. Also, the “Area under the curve, Lymph nodes” value in data set [5] (lymph nodes) is 20.3 nmol foscarnet/g tissue/h. Also, the “Area under the curve, Spleen” value in data set [5] (spleen) turned out to be 0.8 nmol foscarnet/g tissue/h. The “inhibitory activity against CMV p72 protein expression” value in data set [6] was “comparable inhibitory activity”.
